According to article PMC2924234 (Acta Crystallographica Section D: Biological Crystallography, 2006):

Legend:
male CF-1 mice = settings: mouse, in vivo
potassium ion-channel = settings: cited from earlier work

Q: Which “95% confidence limits of the ED50 of seizure activity” value (male CF-1 mice) does the source give for conkunitzin-S1 here?
A: 0.3 to 2 nmol

Q: And the “Behaviour observed after injection” value (male CF-1 mice)?
A: spastic running followed by tonic extension seizures

Q: And the “ED50 of seizure activity” value (male CF-1 mice)?
A: 1 nmol per mouse

Q: What about the Pore-blocking activity (potassium ion-channel) of the same substance?
A: potassium ion-channel pore-blocking toxin
